Test results taken from patent publication US20080312435A1, “Imine Compound” (TAISHO PHARMACEUTICAL CO., LTD., priority 2004, published 2008).

Tests used:
human CB2 receptor [1] = molecular target: T1, human CB2 receptor (Homo sapiens, UniProt P34972); test: Human CB2 receptor binding inhibition test ([3H]CP-55,940, CHO membrane fractions); details: [3H]CP-55,940, membrane fractions of CHO cells stably expressing human CB2 receptor, 25° C., 2 hours; read-out: CB2 IC50 (Inhibition of binding to human CB2 receptor)
T1 construct: expressed in transfected cells
T1 sequence (P34972 whole entry): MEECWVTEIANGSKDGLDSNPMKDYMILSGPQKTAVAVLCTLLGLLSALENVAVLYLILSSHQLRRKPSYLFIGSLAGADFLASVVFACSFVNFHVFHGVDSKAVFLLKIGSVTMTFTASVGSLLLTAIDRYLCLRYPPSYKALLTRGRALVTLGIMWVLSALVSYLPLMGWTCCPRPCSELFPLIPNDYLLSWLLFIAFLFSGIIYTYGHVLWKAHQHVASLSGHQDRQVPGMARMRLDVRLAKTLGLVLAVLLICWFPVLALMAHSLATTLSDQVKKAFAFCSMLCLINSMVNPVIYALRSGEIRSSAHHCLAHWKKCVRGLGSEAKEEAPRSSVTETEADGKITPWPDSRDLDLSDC
Procedure, shortened: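 Membranes from CHO-DHFR(−) cells stably expressing human CB2 used for [3H]CP-55,940 binding; filter-bound radioactivity counted by scintillation after washes with 0.1% BSA buffer. Nonspecific binding defined with 2.0 μM CP-55,940; IC50 for inhibition of specific binding.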

human CB2 receptor [2] = molecular target: T1, human CB2 receptor; test: Test for GTPγS binding via human CB2 receptor; format: biochemical; details: human CB2 receptor CHO membrane fractions; read-out: EC50 value (effective concentration exhibiting 50% activity), GTPγS binding
Method: Test for GTPγS Binding Via Human CB2 Receptor
The CHO cells capable of stably expressing the human CB2 receptor were prepared in the same manner as in Experimental Example 1.

[3] = test system: Jcl: ICR-series male mice; test: Writhing test with acetic acid in mouse; format: in vivo; details: orally administered 30 mg/kg, acetic acid i.p. one hour after administration
Method: Writhing Test with Acetic Acid in Mouse
This test was performed in accordance with the method of Futaki N et al. (Gen Pharmacol. 24(1):105-110 (1993). A test compound suspended in a 5% gum Arabic solution was orally administered to Jcl: ICR-series male mice (5 weeks old). One hour after the administration of the test compound, a 0.9% aqueous acetic acid solution was intraperitoneally administered. Five minutes after the administration, the number of abdomen stretch movements (pain-related behavior) were counted for 10 minutes. Only the 5% gum Arabic solution was orally administered to the control group. A pain-related behavior inhibition rate (%) was obtained based on the following equation.

SD:IGS-series male rats = test: Neuropathic pain test in rat (partial sciatic nerve clipping, von Frey filament); format: in vivo; details: oral administration 3, 10 and 30 mg/kg, one hour after administration, FIG. 1
Method: Neuropathic Pain Test in Rat
Using SD:IGS-series male rats (5 weeks old), neuropathic pain model were prepared by partially clipping the sciatic nerve of the femoral region in accordance with the method of Seltzer et al. (SeltzerZ; Pain. 43(2):205-218 (1990)). When the plantar surface of the paw on the affected side was stimulated by touching with a von Frey filament(s) (nylon fiber for use in a touch test: North Coast Medical, Inc.), the pain threshold (load (g) applied to the filament when an animal responds to touch stimulation) was measured. The test compound was suspended in a 5% gum Arabic solution and administered in a dose of 0 mg/kg, 3 mg/kg, 10 mg/kg and 30 mg/kg. One hour after the administration, pain threshold (g) was measured.

Balb/c male mice = test: Test for edema on ear in mouse (PMA-induced); format: in vivo; details: 1 mg per murine ear, PMA 0.8 μg, measured five hours later
Method: Test for Edema on Ear in Mouse
Using Balb/c male mice (5 weeks old), a test compound dissolved in acetone was applied in an amount of 20 μL to the inside the ear. Ten minutes after the application of the test compound, an acetone solution (20 μL) containing 0.8 μg of PMA (phorbol 12-myristate 13-acetate) was applied. Five hours later, the thickness (hyperplasia) of the ear was measured by a dial sickness gauge. Acetone alone was applied to the control group. The inhibition rate (%) of edema on the ear was calculated based on the following equation.

human CB1 receptor [4] = molecular target: T2, human CB1 receptor (Homo sapiens, UniProt P21554); test: Test for GTPγS binding via human CB1 receptor; format: biochemical; details: human CB1 receptor CHO membrane fractions; maximum activity of each compound regarded as 100%; read-out: EC50 value (effective concentration exhibiting 50% activity), [35S]GTPγS binding
T2 construct: expressed in transfected cells
T2 sequence (P21554 whole entry): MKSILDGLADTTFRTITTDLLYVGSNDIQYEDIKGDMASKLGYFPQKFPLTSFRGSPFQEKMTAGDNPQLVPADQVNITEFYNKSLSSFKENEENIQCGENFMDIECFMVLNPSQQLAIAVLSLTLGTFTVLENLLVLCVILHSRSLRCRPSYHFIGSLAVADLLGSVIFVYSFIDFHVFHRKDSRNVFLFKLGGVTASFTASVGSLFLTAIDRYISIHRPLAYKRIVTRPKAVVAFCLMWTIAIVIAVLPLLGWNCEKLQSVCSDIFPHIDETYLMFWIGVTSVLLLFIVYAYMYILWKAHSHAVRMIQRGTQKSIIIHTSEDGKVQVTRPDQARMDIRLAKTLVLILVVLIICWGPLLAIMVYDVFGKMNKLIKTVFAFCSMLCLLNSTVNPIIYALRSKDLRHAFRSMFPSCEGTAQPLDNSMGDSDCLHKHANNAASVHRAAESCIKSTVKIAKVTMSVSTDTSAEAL
Method: Test for GTPγS Binding Via Human CB1 Receptor
CHO cells capable of stably expressing the human CB1 receptor were prepared in the same manner as in Experimental Example 2. The membrane fractions thereof were incubated together with a test compound in an assay buffer [50 mM Tris-HCl (pH 7.4), 2.5 mM EDTA, 5 mM MgCl2, 3 μM GDP (manufactured by SIGMA), 30 μg/ml Saponin (manufactured by SIGMA)] containing 0.2% bovine serum albumin at 30° C. for 30 minutes. Thereafter, 0.1 nM [^35S]GTPγS (manufactured by Perkin Elmer) was added to the buffer, incubation was performed at 30° C. for 30 minutes. The resultant solution was filtrated by a glass filter GF/C and washed. Thereafter, radioactivity on the glass filter was measured by a liquid scintillation counter. The nonspecific binding was measured […].

human CB1 receptor [5] = molecular target: T2, human CB1 receptor; test: Human CB1 receptor binding inhibition test; details: CHO-DHFR(−) cells stably expressing human CB1 receptor, same manner as Experimental Example 1
Method: Human CB1 Receptor Binding Inhibition Test
The CHO-DHFR(−) cells capable of stably expressing a CB1 receptor were prepared in the same manner as in Experimental Example 1. The binding test to the human CB1 receptor was performed to obtain 50% inhibitory concentration (IC50 value) of a test compound.

Structure (SMILES)	melting point [°C]	IC50 (human CB2 receptor [1]) [nM]	EC50 (human CB2 receptor [2]) [nM]	pain-related behavior inhibition rate [3] [%]	pain threshold (SD:IGS-series male rats)	inhibition rate of edema on the ear (Balb/c male mice) [%]	EC50 (human CB1 receptor [4]) [nM]	IC50 (human CB1 receptor [5]) [nM]
O=C(/N=c1\ccccn1CC1CC1)c1cccc(C(F)(F)F)c1F [compound 9]	58.5 to 59	11.3	23.7	–	–	–	–	–
COc1ccc(C(F)(F)F)cc1C(=O)/N=c1\cc(C(C)(C)C)sn1CC1CC1 [compound 59]	95 to 97	7.2	–	44.8	–	–	–	–
Cc1c(C(C)(C)C)s/c(=N\C(=O)c2cccc(C(F)(F)F)c2)n1CC1CC1 [compound 184]	–	12	9.8	–	increased pain threshold in a dose depending manner	65	–	–
Cc1cccc(C(=O)/N=c2\sc(C(C)(C)C)c(C)n2CC2CC2)c1Br [compound 247]	142 to 144	0.3	–	93.0	–	–	33	3
Cc1cccc(C(=O)/N=c2\sc(C(C)(C)C)c(C)n2CC2CC2)c1I [compound 249]	149 to 151	0.4	–	–	–	–	19	2
COc1ccc(C(F)(F)F)cc1C(=O)/N=c1\sc(C(C)(C)C)c(C)n1CC1CC1 [compound 267]	175 to 177	1.1	0.4	59.9	–	84	–	–
Cc1c(C(C)(C)C)s/c(=N\S(=O)(=O)c2ccccc2C(F)(F)F)n1CC1CC1 [compound 411]	–	8.7	–	49.0	–	–	–	–
Cn1c(C(C)(C)C)c/c(=N\C(=O)c2cccc(C(F)(F)F)c2F)n1CC1CC1 [compound 474, N-(5-t-butyl-2-cyclopropylmethyl-1,2-dihydro-1-methylpyrazol-3-ylidene)-2-fluoro-3-(trifluoromethyl)benzamide]	–	4.9	2.3	61.9	–	37	–	–
CCOCCn1/c(=N/C(=O)c2cccc(C)c2Br)cc(C(C)(C)C)n1C [compound 487]	166 to 167	9.9	–	–	–	–	–	248
CCOCCn1/c(=N/C(=O)c2cccc(Cl)c2C)cc(C(C)(C)C)n1C [compound 490]	127 to 128	10	–	–	–	–	–	291
CCOCCn1/c(=N/C(=O)c2cccc(Br)c2C)cc(C(C)(C)C)n1C [compound 491]	125 to 126	9.3	–	–	–	–	–	172
CC(C)(C)c1nn(CC2CC2)/c(=N/C(=O)c2nccc3ccccc23)s1 [compound 510]	89 to 90	13.2	–	19.6	–	–	–	–
